Columns and labels:
Assay type in all cases: biochemical
FGFR1 = FGFR1 (Homo sapiens (Human), UniProt P11362); assay: FGFR Enzymatic Assay (FRET peptide phosphorylation), FGFR1; details: ATP 210 μM, enzyme 0.02 nM
Protocol: (§1) The inhibitor potency of the exemplified compounds was measured in an enzyme assay that measures peptide phosphorylation using FRET measurements to detect product formation. Inhibitors were serially diluted in DMSO and a volume of 0.5 μL was transferred to the wells of a 384-well plate. For FGFR3, a 10 μL volume of FGFR3 enzyme (Millipore) diluted in assay buffer (50 mM HEPES, 10 mM MgCl2, 1 mM EGTA, 0.01% Tween-20, 5 mM DTT, pH 7.5) was added to the plate and pre-incubated for 5-10 minutes. Appropriate controls (enzyme blank and enzyme with no inhibitor) were included on the plate. The assay was initiated by the addition of a 10 μL solution containing biotinylated EQEDEPEGDYFEWLE peptide substrate (SEQ ID NO: 1) and ATP (final concentrations of 500 nM and 140 μM respectively) in assay buffer to the wells. The plate was incubated at 25° C. for 1 hr. The reactions were ended with the addition of 10 μL/well of quench solution (50 mM Tris, 150 mM NaCl, 0.5 mg/mL BSA, pH 7.8; 30 mM EDTA with Perkin Elmer Lance Reagents at 3.75 nM Eu-antibody PY20 and 180 nM APC-Streptavidin). The plate was allowed to equilibrate for ˜1 hr before scanning the wells on a PheraStar plate reader (BMG Labtech).
(§2) FGFR1 and FGFR2 were measured under equivalent conditions with the following changes in enzyme and ATP concentrations: FGFR1, 0.02 nM and 210 μM, respectively and FGFR2, 0.01 nM and 100 μM, respectively. The enzymes were purchased from Millipore or Invitrogen.
(§3) GraphPad prism3 was used to analyze the data. The IC50 values were derived by fitting the data to the equation for a sigmoidal dose-response with a variable slope. Y=Bottom+(Top−Bottom)/(1+10^((Log IC50−X)*HillSlope)) where X is the logarithm of concentration and Y is the response.

FGFR2 = FGFR2 (Homo sapiens (Human), UniProt P21802); assay: FGFR Enzymatic Assay (FRET peptide phosphorylation), FGFR2; details: ATP 100 μM, enzyme 0.01 nM
Protocol: as §1, §2, §3

FGFR3 = FGFR3 (Homo sapiens (Human), UniProt P22607); assay: FGFR Enzymatic Assay (FRET peptide phosphorylation), FGFR3; details: ATP 140 μM
Protocol: as §1, §3

Measured: IC50

Sequence of FGFR1 (P11362 22-822): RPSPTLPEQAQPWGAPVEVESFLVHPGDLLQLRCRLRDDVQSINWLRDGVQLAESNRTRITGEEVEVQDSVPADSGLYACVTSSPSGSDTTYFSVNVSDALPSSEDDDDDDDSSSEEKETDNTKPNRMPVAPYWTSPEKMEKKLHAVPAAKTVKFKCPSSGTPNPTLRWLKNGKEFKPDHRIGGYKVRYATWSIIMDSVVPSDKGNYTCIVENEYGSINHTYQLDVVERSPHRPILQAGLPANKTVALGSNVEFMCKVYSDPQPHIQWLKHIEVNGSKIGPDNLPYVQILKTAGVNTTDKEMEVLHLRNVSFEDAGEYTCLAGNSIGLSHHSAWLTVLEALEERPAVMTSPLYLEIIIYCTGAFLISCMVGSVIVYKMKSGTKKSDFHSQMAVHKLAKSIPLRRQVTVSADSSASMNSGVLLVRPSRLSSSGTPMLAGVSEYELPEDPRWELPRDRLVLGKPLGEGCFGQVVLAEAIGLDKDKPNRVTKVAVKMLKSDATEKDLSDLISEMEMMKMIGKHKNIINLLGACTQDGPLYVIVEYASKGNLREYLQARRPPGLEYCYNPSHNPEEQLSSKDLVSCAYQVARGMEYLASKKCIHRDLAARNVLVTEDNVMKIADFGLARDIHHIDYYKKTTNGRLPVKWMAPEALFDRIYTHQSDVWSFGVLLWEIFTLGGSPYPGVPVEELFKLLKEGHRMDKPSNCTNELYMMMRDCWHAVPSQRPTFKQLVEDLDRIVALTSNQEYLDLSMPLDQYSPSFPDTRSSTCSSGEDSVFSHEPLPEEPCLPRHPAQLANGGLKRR
Sequence of FGFR3 (P22607 23-806): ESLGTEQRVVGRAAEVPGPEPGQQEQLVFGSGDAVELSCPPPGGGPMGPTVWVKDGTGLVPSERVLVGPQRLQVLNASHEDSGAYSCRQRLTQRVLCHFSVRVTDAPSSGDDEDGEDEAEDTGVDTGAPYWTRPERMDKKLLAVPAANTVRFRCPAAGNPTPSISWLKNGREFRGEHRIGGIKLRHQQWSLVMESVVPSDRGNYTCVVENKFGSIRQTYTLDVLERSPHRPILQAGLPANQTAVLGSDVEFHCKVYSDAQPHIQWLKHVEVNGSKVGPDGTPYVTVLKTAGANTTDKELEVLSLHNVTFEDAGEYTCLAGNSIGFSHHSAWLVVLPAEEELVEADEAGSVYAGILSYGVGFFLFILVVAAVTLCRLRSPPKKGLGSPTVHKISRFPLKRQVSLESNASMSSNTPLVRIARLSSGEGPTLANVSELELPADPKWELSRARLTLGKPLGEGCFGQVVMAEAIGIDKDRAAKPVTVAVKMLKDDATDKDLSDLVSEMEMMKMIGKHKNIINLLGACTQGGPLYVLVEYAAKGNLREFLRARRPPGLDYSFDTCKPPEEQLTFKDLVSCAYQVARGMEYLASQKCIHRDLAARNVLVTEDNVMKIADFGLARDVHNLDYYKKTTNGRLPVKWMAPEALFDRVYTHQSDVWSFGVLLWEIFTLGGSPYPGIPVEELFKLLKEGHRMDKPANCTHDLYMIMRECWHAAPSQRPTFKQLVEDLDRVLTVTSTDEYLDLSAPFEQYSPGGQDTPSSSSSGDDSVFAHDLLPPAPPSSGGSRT
Sequence of FGFR2 (P21802 22-821): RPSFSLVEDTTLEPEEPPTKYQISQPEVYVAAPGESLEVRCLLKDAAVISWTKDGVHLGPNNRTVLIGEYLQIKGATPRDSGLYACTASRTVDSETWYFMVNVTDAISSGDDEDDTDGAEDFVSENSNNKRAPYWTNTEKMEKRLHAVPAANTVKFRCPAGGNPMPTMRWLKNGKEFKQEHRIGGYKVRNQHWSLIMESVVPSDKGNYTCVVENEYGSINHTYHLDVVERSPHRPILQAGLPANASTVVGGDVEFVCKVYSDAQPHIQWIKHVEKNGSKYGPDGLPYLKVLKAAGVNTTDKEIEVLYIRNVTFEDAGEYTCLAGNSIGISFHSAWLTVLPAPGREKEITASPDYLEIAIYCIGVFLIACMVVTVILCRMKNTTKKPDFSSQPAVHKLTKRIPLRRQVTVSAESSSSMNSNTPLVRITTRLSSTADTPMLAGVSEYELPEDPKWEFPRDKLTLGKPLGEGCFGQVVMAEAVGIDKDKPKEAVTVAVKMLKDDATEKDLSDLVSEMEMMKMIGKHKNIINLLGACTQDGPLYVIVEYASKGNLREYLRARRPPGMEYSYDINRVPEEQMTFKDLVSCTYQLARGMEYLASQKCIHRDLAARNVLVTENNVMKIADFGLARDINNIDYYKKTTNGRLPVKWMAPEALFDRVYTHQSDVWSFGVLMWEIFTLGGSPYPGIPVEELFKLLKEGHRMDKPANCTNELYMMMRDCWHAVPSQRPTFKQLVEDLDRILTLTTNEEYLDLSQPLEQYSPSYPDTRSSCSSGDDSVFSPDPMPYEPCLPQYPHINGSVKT

COc1cc(OC)c(F)c(N2Cc3cnc(N)cc3C3(CC3)C2=O)c1F [Example 24, 6′-amino-2′-(2,6-difluoro-3,5-dimethoxyphenyl)-1′H-spiro[cyclopropane-1,4′-[2,7]naphthyridin]-3′(2′H)-one]
< 0.1 µM: all assays above

COc1cc(OC)c(F)c(N2Cc3cnc(NC4CCN(C)CC4)cc3C3(CC3)C2=O)c1F [Example 44, 2′-(2,6-difluoro-3,5-dimethoxyphenyl)-6′-(1-methylpiperidin-4-ylamino)-1′H-spiro[cyclopropane-1,4′-[2,7]naphthyridin]-3′(2′H)-one]
< 0.1 µM: all assays above

COc1cc(OC)c(F)c(N2Cc3cnc(Nc4cccnc4)cc3C3(CC3)C2=O)c1F [Example 32, 2′-(2,6-difluoro-3,5-dimethoxyphenyl)-6′-(pyridin-3-ylamino)-1′H-spiro[cyclopropane-1,4′-[2,7]naphthyridin]-3′(2′H)-one]
< 0.1 µM: all assays above

COc1cc(OC)c(F)c(N2Cc3cnc(N[C@H](C)c4ccccc4)cc3C3(CC3)C2=O)c1F [Example 38, (R)-2′-(2,6-difluoro-3,5-dimethoxyphenyl)-6′-(1-phenylethylamino)-1′H-spiro[cyclopropane-1,4′-[2,7]naphthyridin]-3′(2′H)-one]
< 0.1 µM: all assays above

COc1cc(OC)c(F)c(N2Cc3cnc(NC[C@@H]4CCCO4)cc3C3(CC3)C2=O)c1F [Example 35, (S)-2′-(2,6-difluoro-3,5-dimethoxyphenyl)-6′-((tetrahydrofuran-2-yl)methylamino)-1′H-spiro[cyclopropane-1,4′-[2,7]naphthyridin]-3′(2′H)-one]
< 0.1 µM: all assays above

COc1cc(OC)c(F)c(N2Cc3cnc(NC4CCCCC4)cc3C3(CC3)C2=O)c1F [Example 39, 6′-(cyclohexylamino)-2′-(2,6-difluoro-3,5-dimethoxyphenyl)-1′H-spiro[cyclopropane-1,4′-[2,7]naphthyridin]-3′(2′H)-one]
< 0.1 µM: all assays above

COc1cc(OC)c(F)c(N2Cc3cnc(N)c(C#N)c3N(Cc3cnn(C)c3)C2=O)c1F [Example 51, 7-amino-3-(2,6-difluoro-3,5-dimethoxyphenyl)-1-[(1-methyl-1H-pyrazol-4-yl)methyl]-2-oxo-1,2,3,4-tetrahydropyrido[4,3-d]pyrimidine-8-carbonitrile]
< 0.1 µM: all assays above

COc1cc(OC)c(F)c(N2Cc3cnc(N)c(C#N)c3N(CC3CC3)C2=O)c1F [Example 49, 7-amino-1-(cyclopropylmethyl)-3-(2,6-difluoro-3,5-dimethoxyphenyl)-2-oxo-1,2,3,4-tetrahydropyrido[4,3-d]pyrimidine-8-carbonitrile]
< 0.1 µM: all assays above

COc1cc(OC)c(F)c(N2Cc3cnc(NCCN4CCN(C)CC4)cc3C3(CC3)C2=O)c1F [Example 30, 2′-(2,6-difluoro-3,5-dimethoxyphenyl)-6′-(2-(4-methylpiperazin-1-yl)ethylamino)-1′H-spiro[cyclopropane-1,4′-[2,7]naphthyridin]-3′(2′H)-one]
< 0.1 µM: all assays above

COc1cc(OC)c(F)c(N2Cc3cnc(N)c(C#N)c3N(c3ccccc3F)C2=O)c1F [Example 53, 7-amino-3-(2,6-difluoro-3,5-dimethoxyphenyl)-1-(2-fluorophenyl)-2-oxo-1,2,3,4-tetrahydropyrido[4,3-d]pyrimidine-8-carbonitrile]
< 0.1 µM: all assays above

COc1cc(OC)c(F)c(N2Cc3cnc(N)c(C)c3N(C)C2=O)c1F [Example 1, 7-amino-3-(2,6-difluoro-3,5-dimethoxyphenyl)-1,8-dimethyl-3,4-dihydropyrido[4,3-d]pyrimidin-2(1H)-one]
< 0.1 µM: all assays above

COc1cc(OC)c(F)c(N2Cc3cnc(N)c(C4=CCOCC4)c3N(C)C2=O)c1F [Example 21, 7-amino-3-(2,6-difluoro-3,5-dimethoxyphenyl)-8-(3,6-dihydro-2H-pyran-4-yl)-1-methyl-3,4-dihydropyrido[4,3-d]pyrimidin-2(1H)-one]
< 0.1 µM: all assays above

COc1cc(OC)c(F)c(N2Cc3cnc(N[C@H]4CCOC4)cc3C3(CC3)C2=O)c1F [Example 29, (S)-2′-(2,6-difluoro-3,5-dimethoxyphenyl)-6′-(tetrahydrofuran-3-ylamino)-1′H-spiro[cyclopropane-1,4′-[2,7]naphthyridin]-3′(2′H)-one]
< 0.1 µM: all assays above

COc1cc(OC)c(F)c(N2Cc3cnc(N)c(C#N)c3N(Cc3cc(F)cc(F)c3)C2=O)c1F [Example 52, 7-amino-1-(3,5-difluorobenzyl)-3-(2,6-difluoro-3,5-dimethoxyphenyl)-2-oxo-1,2,3,4-tetrahydropyrido[4,3-d]pyrimidine-8-carbonitrile]
< 0.1 µM: all assays above

COc1cc(OC)c(F)c(N2Cc3cnc(N)c(-c4cccnc4)c3N(C)C2=O)c1F [Example 16, 7-amino-3-(2,6-difluoro-3,5-dimethoxyphenyl)-1-methyl-8-pyridin-3-yl-3,4-dihydropyrido[4,3-d]pyrimidin-2(1H)-one]
< 0.1 µM: all assays above

COC(=O)Nc1cc2c(cn1)CN(c1c(F)c(OC)cc(OC)c1F)C(=O)C21CC1 [Example 31, methyl 2′-(2,6-difluoro-3,5-dimethoxyphenyl)-3′-oxo-2′,3′-dihydro-1′H-spiro[cyclopropane-1,4′-[2,7]naphthyridine]-6′-ylcarbamate]
< 0.1 µM: all assays above

COc1cc(OC)c(F)c(N2Cc3cnc(NC4CC4)cc3C3(CC3)C2=O)c1F [Example 41, 6′-(cyclopropylamino)-2′-(2,6-difluoro-3,5-dimethoxyphenyl)-1′H-spiro[cyclopropane-1,4′-[2,7]naphthyridin]-3′(2′H)-one]
< 0.1 µM: all assays above

COc1cc(OC)c(F)c(N2Cc3cnc(N[C@H]4CC[C@H](O)CC4)cc3C3(CC3)C2=O)c1F [Example 40, 2′-(2,6-difluoro-3,5-dimethoxyphenyl)-6′-(trans-4-hydroxycyclohexylamino)-1′H-spiro[cyclopropane-1,4′-[2,7]naphthyridin]-3′(2′H)-one]
< 0.1 µM: all assays above

COc1cc(OC)c(F)c(N2Cc3cnc(N)c(Oc4ccccc4)c3N(C)C2=O)c1F [Example 7, 7-amino-3-(2,6-difluoro-3,5-dimethoxyphenyl)-1-methyl-8-phenoxy-3,4-dihydropyrido[4,3-d]pyrimidin-2(1H)-one]
< 0.1 µM: all assays above

COc1cc(OC)c(F)c(N2Cc3cnc(N)c(C)c3N(c3ccccc3F)C2=O)c1F [Example 45, 7-amino-3-(2,6-difluoro-3,5-dimethoxyphenyl)-1-(2-fluorophenyl)-8-methyl-3,4-dihydropyrido[4,3-d]pyrimidin-2(1H)-one]
< 0.1 µM: all assays above

COc1cc(OC)c(F)c(N2Cc3cnc(NCc4ccccn4)cc3C3(CC3)C2=O)c1F [Example 28, 2′-(2,6-difluoro-3,5-dimethoxyphenyl)-6′-(pyridin-2-ylmethylamino)-1′H-spiro[cyclopropane-1,4′-[2,7]naphthyridin]-3′(2′H)-one]
< 0.1 µM: all assays above

— US10040790B2, “Bicyclic heterocycles as FGFR inhibitors” (Incyte Corporation, priority 2013, dated 2018)
